In PubChem BioAssay (NCI):
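Grown in 96-well plates, cells were treated for 48 hours with each compound at five concentrations. Insufficient inhibition: endpoint recorded as highest concentration tested. TGI: concentration producing complete growth inhibition.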

Columns and labels:
Assay in all cases: NCI tumour cell line growth inhibition, 48 h
[1] = tested on: LXFL 529 NSCLC
[2] = tested on: KM12 colon
[3] = tested on: DLD-1 colon
[4] = tested on: ACHN renal
[5] = tested on: SNB-19 CNS
[6] = tested on: MALME-3M melanoma
[7] = tested on: SF-539 CNS
[8] = tested on: A498 renal
[9] = tested on: NCI-H23 lung
[10] = tested on: OVCAR-3 ovarian
[11] = tested on: OVCAR-5 ovarian
[12] = tested on: EKVX NSCLC
[13] = tested on: M19-MEL melanoma
[14] = tested on: HOP-18 NSCLC
[15] = tested on: HOP-92 NSCLC
[16] = tested on: RXF-631 renal
[17] = tested on: XF 498 CNS
[18] = tested on: OVCAR-4 ovarian
[19] = tested on: SNB-78 CNS
[20] = tested on: TK-10 renal
[21] = tested on: HCT-116 colon
[22] = tested on: SW-620 colon
[23] = tested on: SK-MEL-2 melanoma
[24] = tested on: OVCAR-8 ovarian
[25] = tested on: NCI-H522 lung
[26] = tested on: KM20L2 colon
[27] = tested on: HCT-15 colon
[28] = tested on: COLO 205 colon
[29] = tested on: SF-268 CNS
[30] = tested on: SK-MEL-28 melanoma
[31] = tested on: UACC-257 melanoma
[32] = tested on: CAKI-1 renal
[33] = tested on: MOLT-4 leukemia
[34] = tested on: NCI-H226 lung
[35] = tested on: DMS 273 small cell lung
[36] = tested on: UACC-62 melanoma
[37] = tested on: HT29 colon
[38] = tested on: NCI-H460 lung
[39] = tested on: K-562 leukemia
[40] = tested on: RPMI-8226 leukemia
[41] = tested on: SNB-75 CNS
[42] = tested on: A549 NSCLC
[43] = tested on: CCRF-CEM leukemia
[44] = tested on: HL-60(TB) leukemia
[45] = tested on: M14 melanoma
[46] = tested on: U251 CNS
[47] = tested on: 786-0 renal
[48] = tested on: IGROV1 ovarian
[49] = tested on: SK-MEL-5 melanoma
[50] = tested on: SK-OV-3 ovarian
[51] = tested on: UO-31 renal
[52] = tested on: SN12C renal
[53] = tested on: SF-295 CNS
[54] = tested on: DMS 114 small cell lung

Cc1cc(Cl)ccc1NC(=O)CCCC(=O)C1CCC/C1=N\NC(=O)CC#N (centres undefined) showed a TGI [1] greater than 100 µM, a TGI [2] greater than 100 µM and a TGI [3] greater than 100 µM. It also gave a TGI [4] greater than 100 µM, a TGI [5] greater than 100 µM and a TGI [6] greater than 100 µM. It also gave a TGI [7] greater than 100 µM, a TGI [8] greater than 100 µM and a TGI [9] greater than 100 µM. It also gave a TGI [10] greater than 100 µM, a TGI [11] greater than 100 µM and a TGI [12] greater than 100 µM. The TGI [13] was greater than 100 µM, the TGI [14] was 97.9 µM and the TGI [15] was greater than 100 µM. For the same compound, the TGI [16] was greater than 100 µM, the TGI [17] was greater than 100 µM and the TGI [18] was greater than 100 µM. The TGI [19] was greater than 100 µM, the TGI [20] was greater than 100 µM and the TGI [21] was greater than 100 µM. It also gave a TGI [22] greater than 100 µM, a TGI [23] greater than 100 µM and a TGI [24] greater than 100 µM. It also gave a TGI [25] greater than 100 µM, a TGI [26] greater than 100 µM and a TGI [27] greater than 100 µM. It also gave a TGI [28] greater than 100 µM, a TGI [29] greater than 100 µM and a TGI [30] greater than 100 µM. It also gave a TGI [31] greater than 100 µM, a TGI [32] greater than 100 µM and a TGI [33] greater than 100 µM. For the same compound, the TGI [34] was greater than 100 µM, the TGI [35] was greater than 100 µM and the TGI [36] was greater than 100 µM. It also gave a TGI [37] greater than 100 µM, a TGI [38] greater than 100 µM and a TGI [39] greater than 100 µM. It also gave a TGI [40] greater than 100 µM, a TGI [41] greater than 100 µM and a TGI [42] greater than 100 µM. The TGI [43] was greater than 100 µM, the TGI [44] was greater than 100 µM and the TGI [45] was greater than 100 µM. The TGI [46] was greater than 100 µM, the TGI [47] was greater than 100 µM and the TGI [48] was greater than 100 µM. The TGI [49] was greater than 100 µM, the TGI [50] was greater than 100 µM and the TGI [51] was greater than 100 µM. It also gave a TGI [52] greater than 100 µM, a TGI [53] greater than 100 µM and a TGI [54] greater than 100 µM.
